Experimental data: PMC6331615, “Aminoacyl sulfonamide assembly in SB-203208 biosynthesis” (Nature Communications, 2019)

T1: SbzB (Streptomyces sp., UniProt P0DY32)
T1 construct: pET28a NdeI/HindIII, His-tagged, E. coli Rosetta2 (DE3), Ni-NTA
T1 sequence (P0DY32 1-532): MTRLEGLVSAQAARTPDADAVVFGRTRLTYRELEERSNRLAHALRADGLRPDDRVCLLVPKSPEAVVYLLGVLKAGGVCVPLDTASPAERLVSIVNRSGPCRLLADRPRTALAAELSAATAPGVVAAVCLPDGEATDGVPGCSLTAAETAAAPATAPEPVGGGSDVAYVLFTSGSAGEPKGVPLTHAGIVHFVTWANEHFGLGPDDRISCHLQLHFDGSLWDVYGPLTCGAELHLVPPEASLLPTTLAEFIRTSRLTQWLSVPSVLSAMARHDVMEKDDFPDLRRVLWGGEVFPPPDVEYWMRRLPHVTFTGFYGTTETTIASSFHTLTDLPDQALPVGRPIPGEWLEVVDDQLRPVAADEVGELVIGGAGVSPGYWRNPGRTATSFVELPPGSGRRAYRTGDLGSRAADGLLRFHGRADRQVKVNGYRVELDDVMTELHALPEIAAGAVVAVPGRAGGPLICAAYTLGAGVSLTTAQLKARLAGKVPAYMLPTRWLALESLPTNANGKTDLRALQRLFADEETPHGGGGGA

B1: SbzM (Streptomyces sp.) (protein)
chain: MSTQQVIAMLTEELHDLDPAERQAKTVELLAVFGRAKAEALQPEERPEAPDTKPGPLLICDWAADLGLDGTTQQLGIEVAPGPTKVTKTADATGHSLASSGHVGADILHVPAGSGFAPHTHPGDHLLFVLAGTGTIAVAGEIVRTRPGQVYMVQGDITHAVGAVTDHMILSVGAPHRRLDSPDRQELTAYAALLGELGEITCRLCDISAAGGEELAAKGCTHSPHRFG
notes: pET28a NdeI/HindIII, His-tagged, E. coli Rosetta2 (DE3), Ni-NTA; tag cleavage not mentioned

Legend:
SbzB = target: T1, SbzB; assay: malachite green adenylation assay with hydroxylamine; chiral HPLC; assay type: biochemical; details: 0.5 mM ATP, 10 mM MgCl2, Tris-HCl pH 7.5, 30 °C
[1] = substrate: N[C@@H](CS)C(=O)O; assay: LC-MS quantification of substrate consumption; assay type: biochemical, Streptomyces sp.; details: 50 mM Tris pH 9.0, 30 °C, TCEP, 6 μM SbzM, 2 min, n = 2

| Molecule | malachite green adenylation assay with hydroxylamine; chiral HPLC (SbzB) | Km [1] [µM] |
| --- | --- | --- |
| C[C@H](c1ccccc1)[C@H](N)C(=O)O [(2S, 3R)-β-methylphenylalanine] | SbzB indeed selectively adenylated (2S, 3R)-β-methylphenylalanine as the best substrate | – |
| B1 | – | 530 ± 80 |
